Entries after “also recorded” stand apart in the source; their conditions may differ.
Assays:
[1] = test system: OVCA 429; test: MTT assay OVCA 429; assay type: cell-based; conditions: Homo sapiens, OVCA429; OVCA 429, Serous
Description: (§1) Majority of ovarian cancers arise from the surface epithelium of ovary, most of them belong to the histological subtypes of clear cell and serous carcinoma. We obtained 10 more human ovarian carcinoma cell-lines of these histological subtypes for these studies. The inhibition activity exerted by Xanifolia-Y was determined with MTT assay.

[2] = test system: SKOV 3; test: MTT assay SKOV 3; assay type: cell-based; conditions: Homo sapiens, SK-OV-3; SKOV 3, Serous
Description: as §1

[3] = test system: ES2 (human ovarian cancer) cells transplanted intra-peritoneally; test: Animal study, survival of mice with intra-peritoneal ES2 tumor; assay type: in vivo, Athymic Nu/Nu mice; conditions: for survival of tumor bearing mice: 2.5 mg/kg; for median survival time: i.p. 2.5 mg/kg
Description: Methods • Athymic Nu/Nu mice are divided into three groups (A, B and C) with four animals in each group. • On day 0, mice of group A and B were transplanted intra-peritoneally with ES2 (human ovarian cancer) cells. • On day 1, mice from B and C groups received drug (Xanifolia-Y, by i.p. route at dose of 5 mg/kg) • On days 2 to 4, and 7 to 11, B and C groups animals received daily drug administration of Xanifolia-Y, by i.p. route at dose of 2.5 mg/kg. • Group A mice have no drug-treatment.
Methods • Athymic Nu/Nu mice were divided into three groups (A, D and E) with four animals in each group. • On day 0, all mice were transplanted intra-peritoneally with ES2 (human ovarian cancer) cells. • Group A mice received no drug-treatment. • Group D: From day 4, mice received a daily drug administration of Xanifolia-Y, via i.p. route for 9 days at dose of 2.5 mg/kg. • Group E: From day 10, mice received daily drug administration of Xanifolia-Y, via i.p. route for 10 days at dose of 2.5 mg/kg. […]

[4] = test system: swelling of the recto-anus of rats; test: Croton oil induced swelling of the recto-anus (hemorrhoids model); assay type: in vivo, SD rats
Description: SD rats, male, age-matched 7-8 weeks old weighing 163±18 g were in the experiment. The tested animals were allowed to acclimate for a week.
A cotton swab with a diameter of 4 mm soaked with 0.16 mL of inducer (deionized water:pyridine:ethyl ether:6% croton oil/ethyl ether, 1:4:5:10) was applied to the rat's anus for 12 seconds. The final concentration of croton oil was 3%. The edema developed linearly until 7-8 hours after application and the severity of the edema was sustained for more than 24 hours. Twenty-four hours later, recto-anus tissue (approx. 10 mm long) was isolated after the rats were euthanized. The weights of rat body and recto-anus were measured. The recto-anus coefficient (RAC) was calculated using the formula: weight of recto-anus (mg)/body weight (g). RAC=weight of recto-anus (mg)/body weight (g)×100%
The rates were randomly divided into 5 groups: control, positive control and 3 test groups, and each group had 8 rats. The dose for 3 groups of rats are 10, 20 and 40 mg/kg. The dose of 0.5% CMC-Na for control group is the same as the each test group. The tested drug was fed into the stomach on the morning, once a day before the animal modeling for 5 days. The anus suppository was applied to positive control once after the animal modeling (1 mL/100 g). The weights of recto-anus and RACs were calculated, compared with the controls and subject to a student t-test.

[5] = test system: Angiopoietin 2 (Ang2) in ES2 cells; test: Angiopoietin-2 cellular content (Western blot); assay type: cell-based, human; conditions: low concentration (5, 10 ug/ml), 24 hours
Description: Methods: ES2 (human ovarian carcinoma cells) were grew in RPMI 1640 medium. 4.5 million cells were seeded in a T75 flask and grown for 24 hours before drug-treatment.
Drug-treatment: Cells cultures were treated with 5, 10 and 15 ug/ml (final concentration) of Xanifolia-Y3 [Y3-5, Y3-10, Y3-15]. or DMSO control [D-10]. After 24 hours, cells were suspended in 1 ml of SDS sample buffer (cell-extract). Samples (80 ul/lane) were applied to 10% SDS gel and electrophoresis was conducted with 100 volts for 2 hours. Protein was transferred to a nitrocellulose membrane electrophoretically. The nitrocellulose blot was blocked with 5% non-fat dry milk in PBS. The blot was then incubated with the first antibodies (goat anti-Ang2, SIGMA A0851) and second antibody (donkey anti-goat AP conjugated, Promega V115A). The immuno-bands were developed with BCIP/NBT color development system (Promega S3771).
Drug-treatment: Cells cultures were treated with 5, 10 and 15 ug/ml (final concentration) of Xanifolia-Y3 [Y3-5, Y3-10, Y3-15]. or DMSO control [D-10]. After 24 hours, cells were suspended in 1 ml of SDS sample buffer (cell-extract). Samples (80 ul/lane) were applied to a 10% SDS gel and electrophoresis was conducted with 100 volts for 2 hours. Protein was transferred to a nitrocellulose membrane electrophoretically. The nitrocellulose blot was blocked with 5% non-fat dry milk in PBS. […]

[6] = test system: blood vessels in ES2 (human ovarian cancer) xenograft tumor; test: Genesis of blood vessel in xenograft tumor; assay type: in vivo, Athymic Nu/Nu mice; conditions: i.p. 2.5 mg/kg on days 10-15 and 18-22, H&E sections
Description: Method: Athymic Nu/Nu mice (5-6 weeks old) are divided into two groups (1 and 2) with 5 animals in each group. On day 0, all mice were transplanted intra-peritoneally with one million ES2 (human ovarian cancer) cells. Animals were randomly divided into two groups:
Group 2: Drug-treatment group. On days 10-15 and 18-22, animals received daily drug administration of Xanifolia-Y, by i.p. route at dosage of 2.5 mg/kg.
Animals with high tumor burden were euthanized and solid tumors were taken out from these mice (between 18-27 days). Tumor tissues fixed with formalin at room temperature. The fixed tissues were sectioned and stained with Haematoxylin and eosin (H&E). The red blood cells inside the micro blood vessels were identified under a microscope.

[7] = drug-treatment started on day 10 after tumor inoculation
[8] = drug-treatment starting on day 4 after tumor inoculation

C/C=C(/C)C(=O)O[C@H]1[C@H](OC(=O)/C(C)=C\C)[C@@]2(CO)C(CC1(C)C)C1=CCC3[C@@]4(C)CC[C@H](O[C@@H]5OC(C(=O)O)[C@@H](O)C(O[C@@H]6O[C@@H](CO)C(O)C6O)C5O[C@@H]5OC(CO)[C@H](O)C(O)C5O)C(C)(C)C4CC[C@@]3(C)[C@]1(C)[C@@H](O)[C@H]2O (stereo partly drawn) [Xanifolia-Y, 3-O-[β-D-galactopyranosyl (1→2)]-α-L-arabinofuranosy (1→3)-β-D-glucuronopyranosyl-21,22-O-diangeloyl-3β, 15α, 16α, 21β, 22α, 28-hexahydroxyolean-12-ene]
IC50 [1]: 7 µM
IC50 [2]: 10.5 µM
survival of mice without tumor given drug ([3]; Group C: no tumor, i.p. 5 mg/kg day 1, 2.5 mg/kg days 2-4 and 7-11): over 50 days
survival of tumor bearing mice ([3]; Group D: i.p. 2.5 mg/kg daily, 9 times from day 4): all survived; also recorded: no death in 50 days
survival of tumor bearing mice ([3]; Group E: i.p. 2.5 mg/kg daily, 10 times from day 10): half the number of mice survived; also recorded: half of the mice survive in 50 days
extension of life span [3, 7]: 29%
extension of life span [3, 8]: 141%
median survival time [3, 7]: 31 days
median survival time [3, 8]: 58 days
RAC ([4]; 10 mg/Kg): 1.83 ± 0.36
Reduction rate % ([4]; 10 mg/Kg): 21.5%
Weight of recto-anus ([4]; 10 mg/Kg fed into the stomach once a day for 5 days): 4.68 ± 0.77 g
RAC ([4]; 20 mg/Kg): 1.61 ± 0.24
Reduction rate % ([4]; 20 mg/Kg): 30.9%
Weight of recto-anus ([4]; 20 mg/Kg): 4.28 ± 0.60 g
RAC ([4]; 40 mg/Kg): 1.51 ± 0.23
Reduction rate % ([4]; 40 mg/Kg): 35.1%
Weight of recto-anus ([4]; 40 mg/Kg): 3.97 ± 0.65 g
Angiopoietin-2 immuno-band in cell extract [5]: No detectable or minimal immuno-band
blood vessels in tumor sections [6]: more blood vessels were observed in the control Group1 than those in the drug-treated Group 2
blood vessels in tumor sections ([6]; listed as Xanifolia Y): More blood vessels were observed in the control Group 1 than those in the drug-treated Group 2
